# Measured values as given in patent US20130203789A1, “Novel Inhibitors of LYN Kinase and Methods Using Same” (VASSA INFORMATICS, priority 2012, published 2013).
# Columns and labels:
# LYN = settings: BT549 cells, Western blot; cited from earlier work
# [1] = test system: mesenchymal breast cancer lines; settings: at concentrations that inhibit LYN kinase activity; cited from earlier work
# [2] = test system: mesenchymal breast cancer lines; settings: at concentrations that inhibit LYN kinase activity; cited from earlier work; remark: listed apart in the source
# Abl kinase (BCR-Abl) = Abl kinase (BCR-Abl) (Homo sapiens, UniProt P00519); experiment: Kinase profiling, Abl; type: biochemical; settings: 100 μM concentration
# Sequence of Abl kinase (BCR-Abl) (P00519 27-1130 limits assumed): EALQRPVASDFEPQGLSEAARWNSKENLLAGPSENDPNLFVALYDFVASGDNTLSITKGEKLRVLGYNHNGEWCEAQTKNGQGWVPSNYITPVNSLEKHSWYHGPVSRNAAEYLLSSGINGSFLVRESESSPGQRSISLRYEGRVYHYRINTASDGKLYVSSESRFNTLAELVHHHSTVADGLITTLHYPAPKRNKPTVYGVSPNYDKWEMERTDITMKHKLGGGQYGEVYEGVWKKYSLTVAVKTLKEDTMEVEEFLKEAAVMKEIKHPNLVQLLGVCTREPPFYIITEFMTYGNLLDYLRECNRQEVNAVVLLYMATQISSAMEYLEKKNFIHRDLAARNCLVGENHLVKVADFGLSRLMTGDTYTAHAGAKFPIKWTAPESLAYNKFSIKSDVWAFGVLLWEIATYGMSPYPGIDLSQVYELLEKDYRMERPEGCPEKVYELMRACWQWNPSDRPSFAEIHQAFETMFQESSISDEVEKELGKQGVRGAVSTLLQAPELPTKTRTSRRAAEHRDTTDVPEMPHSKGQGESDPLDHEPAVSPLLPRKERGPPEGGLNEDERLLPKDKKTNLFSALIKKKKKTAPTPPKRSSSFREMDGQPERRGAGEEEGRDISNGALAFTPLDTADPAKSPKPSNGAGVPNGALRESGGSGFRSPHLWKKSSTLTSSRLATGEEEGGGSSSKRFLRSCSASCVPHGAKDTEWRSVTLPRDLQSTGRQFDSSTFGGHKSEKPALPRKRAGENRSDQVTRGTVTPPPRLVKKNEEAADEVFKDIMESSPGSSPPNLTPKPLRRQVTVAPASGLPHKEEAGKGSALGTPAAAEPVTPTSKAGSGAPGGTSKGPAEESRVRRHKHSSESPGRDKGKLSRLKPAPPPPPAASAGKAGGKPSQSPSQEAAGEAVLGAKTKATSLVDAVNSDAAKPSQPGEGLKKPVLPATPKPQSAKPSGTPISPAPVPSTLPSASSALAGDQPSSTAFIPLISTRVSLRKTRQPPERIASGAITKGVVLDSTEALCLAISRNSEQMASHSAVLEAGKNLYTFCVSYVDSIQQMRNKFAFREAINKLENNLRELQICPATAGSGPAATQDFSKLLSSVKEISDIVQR
# Method: (§1) FIG. 9 is a schematic kinome tree illustrating the evolutionary relationships between 299 kinases. The inhibition of 68 representative kinases by VI301 at 100 μM concentration was evaluated.
# (§2) The three compounds identified in Example 1 were tested for kinase activity at Millipore (Dundee UK). The compounds were shipped as 10 mM stocks in DMSO as per Millipore testing standards. The testing consisted of two initial phases:
# (§3) (a) Profiling against a set of approximately 60 kinases, selected as representative of all kinases and current kinase drug targets, to determine the selectivity of the compounds; and, (b) IC50 testing againstr EGFR, the kinase target of the initial search template molecule.
# Pim-1(h) = molecular target: T1, Pim-1(h) (Homo sapiens, UniProt P11309); experiment: Millipore kinase profiling, Pim-1; type: biochemical; settings: 100 μM concentration
# T1 construct: purchased Millipore (Dundee UK), contract testing service
# T1 sequence (P11309 whole entry): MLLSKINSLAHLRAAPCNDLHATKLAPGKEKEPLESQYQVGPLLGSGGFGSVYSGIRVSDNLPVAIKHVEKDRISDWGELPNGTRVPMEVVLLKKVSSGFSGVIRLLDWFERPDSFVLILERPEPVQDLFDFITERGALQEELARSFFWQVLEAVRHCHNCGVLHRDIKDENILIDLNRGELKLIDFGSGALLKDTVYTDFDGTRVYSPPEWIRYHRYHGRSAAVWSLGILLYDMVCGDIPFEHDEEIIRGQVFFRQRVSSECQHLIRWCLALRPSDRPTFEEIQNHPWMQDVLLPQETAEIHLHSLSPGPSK
# Method: as §2, §3
# Lyn(h) = molecular target: T2, Lyn(h) (Homo sapiens, UniProt P07948); experiment: Millipore kinase profiling, Lyn; type: biochemical; settings: 100 μM concentration
# T2 construct: purchased Millipore (Dundee UK), contract testing service
# T2 sequence (P07948 1-491 isoform P07948-2): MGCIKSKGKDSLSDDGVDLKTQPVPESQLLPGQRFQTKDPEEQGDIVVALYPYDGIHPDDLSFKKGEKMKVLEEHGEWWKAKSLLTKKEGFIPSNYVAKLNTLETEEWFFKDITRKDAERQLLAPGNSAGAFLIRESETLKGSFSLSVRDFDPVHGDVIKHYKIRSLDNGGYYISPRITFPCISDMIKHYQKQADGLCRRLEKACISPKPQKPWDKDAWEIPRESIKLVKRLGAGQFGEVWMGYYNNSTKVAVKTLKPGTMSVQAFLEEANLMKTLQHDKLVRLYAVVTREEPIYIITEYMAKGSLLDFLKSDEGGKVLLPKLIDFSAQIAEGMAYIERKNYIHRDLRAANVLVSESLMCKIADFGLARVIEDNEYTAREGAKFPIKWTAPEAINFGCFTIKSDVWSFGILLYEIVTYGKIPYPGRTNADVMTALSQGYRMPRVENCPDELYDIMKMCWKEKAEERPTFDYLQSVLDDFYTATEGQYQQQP
# Method: as §2, §3
# WNK3(h) = molecular target: T3, WNK3(h) (Homo sapiens, UniProt Q9BYP7); experiment: Millipore kinase profiling, WNK3; type: biochemical; settings: 100 μM concentration
# T3 construct: purchased Millipore (Dundee UK), contract testing service
# T3 sequence (Q9BYP7 whole entry): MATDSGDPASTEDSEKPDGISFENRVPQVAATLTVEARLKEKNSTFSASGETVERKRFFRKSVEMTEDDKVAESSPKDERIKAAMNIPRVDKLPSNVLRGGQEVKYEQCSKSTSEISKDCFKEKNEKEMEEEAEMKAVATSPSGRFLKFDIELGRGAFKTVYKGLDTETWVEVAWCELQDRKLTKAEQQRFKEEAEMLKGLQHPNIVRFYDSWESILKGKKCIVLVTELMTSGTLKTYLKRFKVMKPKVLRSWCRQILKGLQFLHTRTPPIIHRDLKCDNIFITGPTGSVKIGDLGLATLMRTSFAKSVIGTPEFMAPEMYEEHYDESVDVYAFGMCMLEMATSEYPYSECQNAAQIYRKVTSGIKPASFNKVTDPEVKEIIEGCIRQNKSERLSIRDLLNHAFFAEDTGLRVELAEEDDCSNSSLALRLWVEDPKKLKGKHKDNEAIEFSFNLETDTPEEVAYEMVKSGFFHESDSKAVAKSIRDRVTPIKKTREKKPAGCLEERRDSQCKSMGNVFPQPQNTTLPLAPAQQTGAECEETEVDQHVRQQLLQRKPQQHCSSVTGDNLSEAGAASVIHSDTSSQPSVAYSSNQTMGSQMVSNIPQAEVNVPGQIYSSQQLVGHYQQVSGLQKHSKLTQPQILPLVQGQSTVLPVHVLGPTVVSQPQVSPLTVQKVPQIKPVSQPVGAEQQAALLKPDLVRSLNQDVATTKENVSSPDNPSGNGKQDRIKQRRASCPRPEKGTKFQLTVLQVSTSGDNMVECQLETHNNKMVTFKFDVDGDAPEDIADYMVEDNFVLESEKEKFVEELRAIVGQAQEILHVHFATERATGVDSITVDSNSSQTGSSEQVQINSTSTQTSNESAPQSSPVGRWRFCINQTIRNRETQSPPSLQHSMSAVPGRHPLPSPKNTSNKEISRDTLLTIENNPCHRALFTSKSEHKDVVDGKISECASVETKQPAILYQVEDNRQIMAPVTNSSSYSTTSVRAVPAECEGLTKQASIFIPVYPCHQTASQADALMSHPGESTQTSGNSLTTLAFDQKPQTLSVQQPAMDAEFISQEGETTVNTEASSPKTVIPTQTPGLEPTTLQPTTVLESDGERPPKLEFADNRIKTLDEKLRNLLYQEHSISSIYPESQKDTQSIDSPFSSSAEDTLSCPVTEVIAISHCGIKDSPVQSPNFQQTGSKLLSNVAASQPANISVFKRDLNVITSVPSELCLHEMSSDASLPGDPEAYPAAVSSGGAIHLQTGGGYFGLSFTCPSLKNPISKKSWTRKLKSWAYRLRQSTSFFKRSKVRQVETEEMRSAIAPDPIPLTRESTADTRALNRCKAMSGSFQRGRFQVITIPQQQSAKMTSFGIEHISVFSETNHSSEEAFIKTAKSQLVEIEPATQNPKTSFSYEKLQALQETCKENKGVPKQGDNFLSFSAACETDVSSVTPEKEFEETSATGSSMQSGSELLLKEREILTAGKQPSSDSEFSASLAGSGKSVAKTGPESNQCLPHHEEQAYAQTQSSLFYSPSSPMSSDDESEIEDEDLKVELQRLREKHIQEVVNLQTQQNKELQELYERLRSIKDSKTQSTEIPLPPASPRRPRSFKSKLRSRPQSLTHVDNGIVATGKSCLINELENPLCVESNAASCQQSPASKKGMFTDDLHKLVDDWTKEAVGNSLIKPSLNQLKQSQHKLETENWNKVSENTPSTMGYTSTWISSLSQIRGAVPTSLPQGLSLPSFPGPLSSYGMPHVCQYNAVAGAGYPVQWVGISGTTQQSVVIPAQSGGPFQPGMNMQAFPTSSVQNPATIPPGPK
# Method: as §2, §3
# CamK1 = CamK1 (Homo sapiens, UniProt Q14012); experiment: Kinase profiling, CamK1; type: biochemical; settings: 100 μM concentration
# Method: as §1, §2, §3
inhibition at 100 µM (Abl kinase (BCR-Abl)) [%],inhibition at 100 µM (Pim-1(h)) [%],inhibition at 100 µM (Lyn(h)) [%],inhibition of LYN kinase (in words) (Lyn(h)),inhibition at 100 µM (WNK3(h)) [%],inhibition at 100 µM (CamK1) [%],SMILES,phosphorylated (activated) LYN (LYN),cell proliferation [1],cell invasion [2]
,,,,,,"Cc1nc(Nc2ncc(C(=O)Nc3c(C)cccc3Cl)s2)cc(N2CCN(CCO)CC2)n1 [Dasatinib, N-(2-chloro-6-methylphenyl)-2-[[6-[4-(2-hydroxyethyl)-1-piperazinyl]-2-methyl-4-pyrimidinyl]amino]-5-thiazole carboxamide]",decreased phosphorylated (activated) LYN,not proliferation,blocked invasion
106,12,95,good inhibition,3,26,"Cc1nn2c(ncc3c(=O)n(-c4ccccc4)ccc32)c1-c1ccccc1 [VI301, 2-methyl-3,7-diphenylpyrazolo[1,5-a]pyrido[3,4-e]pyrimidin-6(7H)-one]",,,
